Our source for the TD50 and IC50 values is patent US8008303B2, “Biphenyl derivatives and their use in treating hepatitis C” (AstraZeneca AB, priority 2005, dated 2011).

Series [1] deals with HCV replicon cells Huh 9B. The series is classed as cell-based.
Series [2] concerns HCV replicon cells Huh 9B. The experiment in a line: HCV replicon assay (luciferase readout). The series is classed as cell-based. A digest of the protocol: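 Compounds, made up at twice final strength (final DMSO 1%), were added to subgenomic replicon cells one day after plating. Incubation then ran 72 h at 37 °C, 5% CO2, without G418. Replication was quantified as firefly luciferase luminescence in lysed cells, with cytotoxicity assessed on a duplicate clear plate.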
In general terms: A replicon is a self-replicating genome or part of one, used to study replication in cells.

[3] abbreviates: concentration reducing total cell area by 50% relative to DMSO controls, methylene blue, absorbance 620 nm, 72 h incubation.
[4] abbreviates: Hepatitis C virus, 72 h, concentration reducing replicon level (luciferase activity) by 50% vs untreated cell control, 72 h incubation.

Where two headings read alike, the source gives them in different places. Some results are limits rather than exact numbers.

What is called IC50 is the concentration at which inhibition is half-maximal. On to `Cc1ccc(C(=O)NCCc2cnc[nH]2)cc1-c1ccc(C(=O)Nc2ccc(CN3CCS(=O)(=O)CC3)cc2)cc1` [Example 127, 6-Methyl-biphenyl-3,4′-dicarboxylic acid 4′-{[4-(1,1-dioxo-1lambda*6*-thiomorpholin-4-ylmethyl)-phenyl]-amide} 3-{[2-(3H-imidazol-4-yl) -ethyl]-amide}], for which the TD50 entry in series [1] is “* (key: * < 50 μM; ** > 50 μM)”. The molecule further gave an IC50 in series [2] of 1 to 5 µM.

For the molecule `COCCNC(=O)c1ccc(C)c(-c2ccc(C(=O)Nc3ccc(CN4CCS(=O)(=O)CC4)cc3)cc2)c1` [Example 126, 6-Methyl-biphenyl-3,4′-dicarboxylic acid 4′-{[4-(1,1-dioxo-1lambda*6*-thiomorpholin-4-ylmethyl)-phenyl]-amide} 3-[(2-methoxy-ethyl)-amide]], in series [1], the TD50 entry is recorded as “* (key: * < 50 μM; ** > 50 μM)”. For the same molecule, the IC50 in series [2] fell in the range of 1 to 5 µM.

Turning to `Cc1ccc(C(=O)NCC2CCCCC2)cc1-c1ccc(C(=O)Nc2ccc(CN3CCS(=O)(=O)CC3)cc2)cc1` [Example 146, 6-Methyl-biphenyl-3,4′-dicarboxylic acid 3-cyclohexylmethyl-amide 4′-{[4-(1,1-dioxo-1lambda*6*-thiomorpholin-4-ylmethyl)-phenyl]-amide}], the TD50 result in series [1] is on record as “* (key: * < 50 μM; ** > 50 μM)”. Further, in series [2], the IC50 was < 1 µM.

Take `CCCS(=O)(=O)N1CCN(Cc2ccc(NC(=O)c3ccc(-c4cc(NC(=O)NC5CCCCC5)ccc4Cl)cc3)cc2)CC1` [Example 253, 2′-Chloro-5′-(3-cyclohexyl-ureido)-biphenyl-4-carboxylic acid {4-[4-(propane-1-sulfonyl)-piperazin-1-ylmethyl]-phenyl}-amide]: the TD50 result in series [1] (setting [3]) was “* (* < 50 μM)”. Besides, the IC50 in series [2] (setting [4]) is < 1 µM.

`CCCS(=O)(=O)N1CCN(Cc2ccc(NC(=O)c3ccc(-c4cc(NC(=O)[C@@H]5CCCN5)ccc4OC(F)(F)F)cc3)cc2)CC1` [Example 236, (S)-Pyrrolidine-2-carboxylic acid (4′-{4-[4-(propane-1-sulfonyl)-piperazin-1-ylmethyl]-phenylcarbamoyl}-6-trifluoromethoxy-biphenyl-3-yl)-amide]: in series [1] (setting [3]), the TD50 result is reported as “* (* < 50 μM)”. For the same molecule, the IC50 in series [2] (setting [4]) lay within 1 to 5 µM.

As to `CCOC(=O)c1ccc(-c2cc(NC(=O)OC(C)(C)C)ccc2C)cc1` [Example 210, 5′-tert-Butoxycarbonylamino-2′-methyl-biphenyl-4-carboxylic acid ethyl ester], the TD50 result in series [1] (setting [3]) is on record as “* (* < 50 μM)”. In series [2] (setting [4]), this molecule displayed an IC50 of 1 to 5 µM.

Take `Cc1ccc(NC(=O)c2ccco2)cc1-c1ccc(C(=O)NCc2cccc(Cl)c2)cc1` [Example 209, Furan-2-carboxylic acid [4′-(3-chloro-benzylcarbamoyl)-6-methyl-biphenyl-3-yl]-amide]: the TD50 entry in series [1] (setting [3]) was “** (** > 50 μM)”. For the same molecule, the IC50 in series [2] (setting [4]) was in the range of 1 to 5 µM.

Take `COc1ccccc1C(=O)Nc1ccc(-c2cccc(C(=O)Nc3ccc(N4CCOCC4)cc3)c2)c(C)c1` [Example 115, 4′-(2-Methoxy-benzoylamino)-2′-methyl-biphenyl-3-carboxylic acid (4-morpholin-4-yl-phenyl)-amide]: in series [1] (setting [3]), the TD50 entry was “* (* < 50 μM)”. The IC50 in series [2] (setting [4]) was 1 to 5 µM.

Take `Cc1ccc(C(=O)Nc2ccc(N3CCOCC3)cc2)cc1-c1ccc(C(=O)Nc2cccc(Br)c2)cc1` [Example 1, 6-Methyl-biphenyl-3,4′-dicarboxylic acid 4′-[(3-bromo-phenyl)-amide] 3-[(4-morpholin-4-yl-phenyl)-amide]]: the TD50 entry in series [1] is “** (key: * < 50 μM; ** > 50 μM)”. This molecule also showed an IC50 in series [2] of 1 to 5 µM.

With `O=C(Nc1ccc2[nH]ccc2c1)c1ccc(-c2cccc(C(=O)Nc3ccc(N4CCOCC4)cc3)c2)cc1` [Example 59, Biphenyl-3,4′-dicarboxylic acid 4′-[(1H-indol-5-yl)-amide] 3-[(4-morpholin-4-yl-phenyl)-amide]], in series [1], the TD50 entry is listed as “** (key: * < 50 μM; ** > 50 μM)”. In series [2], this molecule showed a half-maximal inhibitory concentration (IC50) of 1 to 5 µM.

On to `Cc1ccc(C(=O)Nc2ccc(N3CCOCC3)cc2)cc1-c1ccc(C(=O)N2CCN(c3cccc(Cl)c3Cl)CC2)cc1` [Example 37, 4′-[4-(2,3-Dichloro-phenyl)-piperazine-1-carbonyl]-6-methyl-biphenyl-3-carboxylic acid (4-morpholin-4-yl-phenyl)-amide], for which the TD50 entry in series [1] (setting [3]) is listed as “** (** > 50 μM)”. Also, the IC50 in series [2] (setting [4]) was > 5 µM.

With `COc1cccc(C(=O)Nc2ccc(-c3cccc(C(=O)Nc4ccc(N5CCOCC5)cc4)c3)c(C)c2)c1` [Example 116, 4′-(3-Methoxy-benzoylamino)-2′-methyl-biphenyl-3-carboxylic acid (4-morpholin-4-yl-phenyl)-amide], in series [1] (setting [3]), the TD50 result is reported as “* (* < 50 μM)”. Moreover, the IC50 in series [2] (setting [4]) fell in the range of 1 to 5 µM.

Take `Cc1cccc(CNC(=O)c2ccc(-c3cc(C(=O)Nc4ccc(N5CCOCC5)cc4)ccc3C)cc2)c1` [Example 3, 6-Methyl-biphenyl-3,4′-dicarboxylic acid 4′-(3-methyl-benzylamide) 3-[(4-morpholin-4-yl-phenyl)-amide]]: in series [1], the TD50 result is recorded as “** (key: * < 50 μM; ** > 50 μM)”. This molecule came in with an IC50 in series [2] of 1 to 5 µM.

For the molecule `Cc1cc(NC(=O)c2ccco2)ccc1-c1cccc(C(=O)Nc2ccc(N3CCOCC3)cc2)c1` [Example 114, Furan-2-carboxylic acid [2-methyl-3′-(4-morpholin-4-yl-phenylcarbamoyl)-biphenyl-4-yl]-amide], the TD50 result in series [1] (setting [3]) is given as “* (* < 50 μM)”. Besides, the IC50 in series [2] (setting [4]) was > 5 µM.

As for `Cc1ccc(CNC(=O)c2ccc(-c3cc(C(=O)Nc4ccc(N5CCOCC5)cc4)ccc3C)cc2)cc1Cl` [Example 43, 6-Methyl-biphenyl-3,4′-dicarboxylic acid 4′-(3-chloro-4-methyl-benzylamide) 3-[(4-morpholin-4-yl-phenyl)-amide]], the TD50 result in series [1] is listed as “** (key: * < 50 μM; ** > 50 μM)”. For the same molecule, the IC50 in series [2] is < 1 µM.

On to `Cc1ccc(C(=O)Nc2ccc(N3CCOCC3)cc2)cc1-c1ccc(C(=O)NCCc2cnc[nH]2)cc1` [Example 13, 6-Methyl-biphenyl-3,4′-dicarboxylic acid 4′-{[2-(3H -imidazol-4-yl)-ethyl]-amide} 3-[(4-morpholin-4-yl-phenyl)-amide]], for which the TD50 entry in series [1] is listed as “* (key: * < 50 μM; ** > 50 μM)”. Also, the IC50 in series [2] was > 5 µM.

On to `CCCC(=O)Nc1ccc(C)c(-c2ccc(C(=O)Nc3ccc(CN4CCS(=O)(=O)CC4)cc3)cc2)c1` [Example 182, 5′-Butyrylamino-2′-methyl-biphenyl-4-carboxylic acid [4-(1,1-dioxo-1lambda*6*-thiomorpholin-4-ylmethyl)-phenyl]-amide], for which the TD50 result in series [1] (setting [3]) is listed as “* (* < 50 μM)”. Also, the IC50 in series [2] (setting [4]) was < 1 µM.

For `Cc1ccc(NC(=O)C2CC2)cc1-c1ccc(C(=O)Nc2ccc(CN3CCCCC3)cc2)cc1` [Example 228, 5′-(Cyclopropanecarbonyl-amino)-2′-methyl-biphenyl-4-carboxylic acid (4-piperidin-1-ylmethyl-phenyl)-amide], in series [1] (setting [3]), the TD50 result is reported as “* (* < 50 μM)”. This molecule also displayed an IC50 in series [2] (setting [4]) of 1 to 5 µM.

On to `Cc1ccc(NC(=O)C2CC2)cc1-c1ccc(C(=O)NCc2ccc(N3CCN(C)CC3)cc2)cc1` [Example 217, 5′-(Cyclopropanecarbonyl-amino)-2′-methyl-biphenyl-4-carboxylic acid 4-(4-methyl-piperazin-1-yl)-benzylamide], for which, in series [1] (setting [3]), the TD50 entry is listed as “* (* < 50 μM)”. In series [2] (setting [4]), the IC50 was > 5 µM.
